Assay results reported in patent US20240251792A1, “WEED CONTROL METHOD” (SYNGENTA CROP PROTECTION AG, priority 2021, published 2024).
Like-named read-outs stand apart in the source and are kept apart here.

Assays:
Format in all cases: in vivo
weeds and/or crops = assay: Post-emergence biological efficacy (Table 4); conditions: 1000 g/ha, evaluated after 13 days; for pest or weed control at 1000 g/ha: 312 h
Summary of the method: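 Scores are visual damage (0 = none, 100 = total), read 13 days after treatment at 24/18 °C with 15 h light. Plants had been sown in standard soil and grown 14 days before a spray of compound in F50/acetone, diluted with 0.2% Genapol X080.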

AMARE [1] = assay: Pre-emergence biological efficacy (Table 3); conditions: 1000 g/ha, after 13 days; for pest or weed control at 1000 g/ha: Amaranthus retroflexus, 312 h, read-out: evaluation (100=total damage to plant; 0=no damage to plant)
Summary of the method: (§1)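 Pre-emergence spray applied one day post-sowing; aqueous solution from 50 g/l AMA-based formulation in 0.2% Genapol X080. Evaluation at 13 days, 0 = no damage, 100 = total damage.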

ECHCG = assay: Pre-emergence biological efficacy (Table 3); conditions: 1000 g/ha, after 13 days; for pest or weed control at 1000 g/ha: Echinochloa crus-galli, 312 h, read-out: evaluation (100=total damage to plant; 0=no damage to plant)
Summary of the method: as §1

SETFA = assay: Pre-emergence biological efficacy (Table 3); conditions: Setaria faberi, 312 h, 1000 g/ha, after 13 days, read-out: evaluation (100=total damage to plant; 0=no damage to plant)
Summary of the method: as §1

AMAPA = assay: Pre-emergence biological efficacy (Table 3); conditions: 312 h, 1000 g/ha, after 13 days, read-out: evaluation (100=total damage to plant; 0=no damage to plant)
Summary of the method: as §1

ZEAMX = assay: Pre-emergence biological efficacy (Table 3); conditions: 1000 g/ha, after 13 days; for plant injury at 1000 g/ha: 312 h, read-out: evaluation (100=total damage to plant; 0=no damage to plant)
Summary of the method: as §1

IPOHE = assay: Pre-emergence biological efficacy (Table 3); conditions: 1000 g/ha, after 13 days; for pest or weed control at 1000 g/ha: Ipomoea hederacea, 312 h, read-out: evaluation (100=total damage to plant; 0=no damage to plant)
Summary of the method: as §1

STEME [2] = assay: Biological efficacy, pre-emergence glasshouse test (Table 2); conditions: 1000 g/ha, after 12 days
Description: (§2) Seeds of a variety of test species were shown in unsterilised compost in small pots. After cultivation for one day (pre-emergence) or seven days (post-emergence) in controlled conditions in the glasshouse (at 24/16° C., day/night; 14 hours light; 65% humidity) the plants were sprayed with 1 mg of the active ingredient, formulated in 466 μl of a acetone/water/Tween 20 (49.75:49.75:0.5) solution, which is equivalent to 1000 g/ha. Once the foliage was dry, the pots were kept in the glasshouse (at 24/16° C., day/night; 14 hours light; 65% humidity), and were watered twice daily. After 12 days the test was evaluated and scored (100=total damage to plant, 0=no damage to plant).

AMARE [3] = assay: as above; conditions: 1000 g/ha, after 12 days
Description: as §2

LOLPE [4] = assay: as above; conditions: 1000 g/ha, after 12 days
Description: as §2

DIGSA [5] = assay: as above; conditions: 1000 g/ha, after 12 days
Description: as §2

STEME [6] = assay: Biological efficacy, post-emergence glasshouse test (Table 2); conditions: 1000 g/ha, after 12 days
Description: as §2

AMARE [7] = assay: as above; conditions: 1000 g/ha, after 12 days
Description: as §2

LOLPE [8] = assay: as above; conditions: 1000 g/ha, after 12 days
Description: as §2

DIGSA [9] = assay: as above; conditions: 1000 g/ha, after 12 days
Description: as §2

STEME [10] = assay: Pre-emergence biological efficacy (Table 3); conditions: 1000 g/ha, after 13 days
Summary of the method: as §1

ABUTH = assay: Pre-emergence biological efficacy (Table 3); conditions: 1000 g/ha, after 13 days
Summary of the method: as §1

COc1c(C)cccc1C(F)(F)C(=O)O [Compound 1-463, 2,2-Difluoro-2-(2-methoxy-3-methyl-phenyl)acetic acid]
pest or weed control at 1000 g/ha (weeds and/or crops; AMAPA, read-out: damage to plant AMAPA (100=total damage; 0=no damage)): 70% | pest or weed control at 1000 g/ha (weeds and/or crops; ZEAMX, read-out: damage to plant ZEAMX (100=total damage; 0=no damage)): 10% | pest or weed control at 1000 g/ha (weeds and/or crops; Amaranthus retroflexus, AMARE, read-out: damage to plant AMARE (100=total damage; 0=no damage)): 80% | pest or weed control at 1000 g/ha (weeds and/or crops; Echinochloa crus-galli, ECHCG, read-out: damage to plant ECHCG (100=total damage; 0=no damage)): 10% | pest or weed control at 1000 g/ha (weeds and/or crops; Ipomoea hederacea, IPOHE, read-out: damage to plant IPOHE (100=total damage; 0=no damage)): 70% | pest or weed control at 1000 g/ha (weeds and/or crops; Setaria faberi, SETFA, read-out: damage to plant SETFA (100=total damage; 0=no damage)): 30% | pest or weed control at 1000 g/ha (AMARE [1]): 50% | pest or weed control at 1000 g/ha (ECHCG): 0% | pest or weed control at 1000 g/ha (SETFA): 0% | pest or weed control at 1000 g/ha (AMAPA): 60% | plant injury at 1000 g/ha (ZEAMX): 0% | pest or weed control at 1000 g/ha (IPOHE): 50%

COc1cc(F)c(C(F)(F)C(=O)O)cc1Cl.N [Compound 7-31, Ammonium;2-(5-chloro-2-fluoro-4-methoxy-phenyl)-2,2-difluoro-acetate]
score (100=total damage to plant, 0=no damage to plant) (STEME [2]): 0 | score (100=total damage to plant, 0=no damage to plant) (AMARE [3]): 0 | score (100=total damage to plant, 0=no damage to plant) (LOLPE [4]): 0 | score (100=total damage to plant, 0=no damage to plant) (DIGSA [5]): 0 | score (100=total damage to plant, 0=no damage to plant) (STEME [6]): 0 | score (100=total damage to plant, 0=no damage to plant) (AMARE [7]): 100 | score (100=total damage to plant, 0=no damage to plant) (LOLPE [8]): 0 | score (100=total damage to plant, 0=no damage to plant) (DIGSA [9]): 0 | damage to plant ABUTH (100=total damage; 0=no damage) (weeds and/or crops): 0 | damage to plant AMARE (100=total damage; 0=no damage) (weeds and/or crops; AMARE): 0 | damage to plant IPOHE (100=total damage; 0=no damage) (weeds and/or crops; IPOHE): 0 | damage to plant STEME (100=total damage; 0=no damage) (weeds and/or crops): 0 | damage to plant ZEAMX (100=total damage; 0=no damage) (weeds and/or crops; ZEAMX): 20 | evaluation (100=total damage to plant; 0=no damage to plant) (STEME [10]): 0 | evaluation (100=total damage to plant; 0=no damage to plant) (AMARE [1]): 0 | evaluation (100=total damage to plant; 0=no damage to plant) (ZEAMX): 0 | evaluation (100=total damage to plant; 0=no damage to plant) (ABUTH): 0 | evaluation (100=total damage to plant; 0=no damage to plant) (IPOHE): 0

Nc1cccc(C(F)(F)C(=O)O)c1 [Compound 1-8, 2-(3-Aminophenyl)-2,2-difluoro-acetic acid]
score (100=total damage to plant, 0=no damage to plant) (STEME [2]): 0 | score (100=total damage to plant, 0=no damage to plant) (AMARE [3]): 0 | score (100=total damage to plant, 0=no damage to plant) (LOLPE [4]): 0 | score (100=total damage to plant, 0=no damage to plant) (DIGSA [5]): 0 | score (100=total damage to plant, 0=no damage to plant) (STEME [6]): 10 | score (100=total damage to plant, 0=no damage to plant) (AMARE [7]): 10 | score (100=total damage to plant, 0=no damage to plant) (LOLPE [8]): 0 | score (100=total damage to plant, 0=no damage to plant) (DIGSA [9]): 0

COCc1c(Cl)cccc1C(F)(F)C(=O)O [Compound 1-436, 2-[3-Chloro-2-(methoxymethyl)phenyl]-2,2-difluoro-acetic acid]
pest or weed control at 1000 g/ha (AMARE [1]): 30% | pest or weed control at 1000 g/ha (ECHCG): 0% | pest or weed control at 1000 g/ha (SETFA): 20% | pest or weed control at 1000 g/ha (AMAPA): 40% | plant injury at 1000 g/ha (ZEAMX): 0% | pest or weed control at 1000 g/ha (IPOHE): 40%

N.N#Cc1cccc(C(F)(F)C(=O)O)c1Cl [Compound 7-231, Ammonium;2-(2-chloro-3-cyano-phenyl)-2,2-difluoro-acetate]
score (100=total damage to plant, 0=no damage to plant) (STEME [2]): 100 | score (100=total damage to plant, 0=no damage to plant) (AMARE [3]): 90 | score (100=total damage to plant, 0=no damage to plant) (LOLPE [4]): 40 | score (100=total damage to plant, 0=no damage to plant) (DIGSA [5]): 80 | score (100=total damage to plant, 0=no damage to plant) (STEME [6]): 80 | score (100=total damage to plant, 0=no damage to plant) (AMARE [7]): 90 | score (100=total damage to plant, 0=no damage to plant) (LOLPE [8]): 0 | score (100=total damage to plant, 0=no damage to plant) (DIGSA [9]): 70 | damage to plant ABUTH (100=total damage; 0=no damage) (weeds and/or crops): 90 | damage to plant AMARE (100=total damage; 0=no damage) (weeds and/or crops; AMARE): 90 | damage to plant ECHCG (100=total damage; 0=no damage) (weeds and/or crops; ECHCG): 10 | damage to plant IPOHE (100=total damage; 0=no damage) (weeds and/or crops; IPOHE): 80 | damage to plant STEME (100=total damage; 0=no damage) (weeds and/or crops): 100 | damage to plant ZEAMX (100=total damage; 0=no damage) (weeds and/or crops; ZEAMX): 30 | evaluation (100=total damage to plant; 0=no damage to plant) (STEME [10]): 100 | evaluation (100=total damage to plant; 0=no damage to plant) (AMARE [1]): 90 | evaluation (100=total damage to plant; 0=no damage to plant) (ECHCG): 10 | evaluation (100=total damage to plant; 0=no damage to plant) (ZEAMX): 50 | evaluation (100=total damage to plant; 0=no damage to plant) (ABUTH): 90 | evaluation (100=total damage to plant; 0=no damage to plant) (IPOHE): 80
